Values quoted from earlier work, collected in US20150031774A1, “RASAGILINE ORALLY DISINTEGRATING COMPOSITIONS” (priority 2004, published 2015).

Target: 9-form of the enzyme monoamine oxidase (Homo sapiens, UniProt P27338)
Settings: prior-art patents cited in background

Chain of 9-form of the enzyme monoamine oxidase (P27338 whole entry): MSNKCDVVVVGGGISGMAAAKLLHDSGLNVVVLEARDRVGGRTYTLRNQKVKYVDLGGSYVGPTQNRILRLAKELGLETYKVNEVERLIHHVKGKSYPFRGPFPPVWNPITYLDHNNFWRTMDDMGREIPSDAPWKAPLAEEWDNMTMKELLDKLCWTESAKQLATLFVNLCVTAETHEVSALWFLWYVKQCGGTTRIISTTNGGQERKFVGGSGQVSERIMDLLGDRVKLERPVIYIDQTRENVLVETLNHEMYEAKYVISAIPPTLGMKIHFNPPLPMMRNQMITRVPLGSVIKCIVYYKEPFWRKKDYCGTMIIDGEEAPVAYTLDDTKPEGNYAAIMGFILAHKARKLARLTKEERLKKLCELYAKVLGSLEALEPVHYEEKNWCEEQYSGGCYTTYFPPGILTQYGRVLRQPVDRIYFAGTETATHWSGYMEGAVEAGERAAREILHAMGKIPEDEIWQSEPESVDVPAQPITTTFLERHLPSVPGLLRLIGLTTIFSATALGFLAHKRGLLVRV

- selectivity of monoamine oxidase inhibition: selective inhibitor
Compound: C#CCN[C@@H]1CCc2ccccc21 [Rasagiline, R(+)-propargyl-1-aminoindan]
